Laboratory results published in article PMC11156954, “Inhibition and transport mechanisms of the ABC transporter hMRP5” (Nature Communications, 2024).
No end group written: not given here.

Target: T1, hMRP5-Δ1-94 (Homo sapiens, UniProt O15440)
T1 construct: The codon-optimized full-length human ABCC5 gene encoding the MRP5 protein (UniProt ID: O15440); 8xHis (C); 2xstrep (C); made in house; host or cells: HEK293F
Assay: cryo-EM of the reconstituted peptide complex
Assay type: binding
Settings: peptide and hMRP5-Δ1-94 at 2:1 ratio, on ice, 1 h; inward-open complex
Description: To assess if D35C-E75C can structurally block the transport pathway, we incubated it with hMRP5-Δ1-94 at a 2:1 ratio for in vitro reconstitution. The resulting high-resolution structure of the reconstituted complex maintained an inward-open conformation with both NBDs separated (Fig. 4c and Supplementary Fig. 7a–d). […] Given its ability to effectively occlude the binding pocket, we termed the D35C-E75C peptide MRP5 potential peptide inhibitor (M5PI).
Freshly purified MRP5 protein was concentrated to ~5 mg/ml. Then, 5 μl proteins were added to the freshly glow-discharged (0.39 mBar air, 15 mA, 50 s) holey carbon grid (Quantifoil Au R1.2/1.3, 300 mesh). The grids were plunge-frozen in liquid ethane using an FEI Vitrobot Mark IV (Thermo Fisher Scientific) under the following conditions: waiting time, 11 s; blot time, 4 s; blot force, −2; temperature, 10 °C; and humidity, 100%. Next, the grids were transferred to and stored in liquid nitrogen until data acquisition. For the peptide M5PI-bound complex, the peptide and hMRP5-Δ1-94 were incubated together on ice at a ratio of 2:1 for 1 h before vitrification. […]
The single-particle analysis procedures for all states are summarized in the supplementary information (Supplementary Figs. 1, 2, 4, 5, 7 and 8). […] The overall resolution of the final map was determined by the 0.143 criterion of the gold-standard Fourier shell correlation. […]

T1 sequence (O15440 95-1437 limits assumed, stated change not applied): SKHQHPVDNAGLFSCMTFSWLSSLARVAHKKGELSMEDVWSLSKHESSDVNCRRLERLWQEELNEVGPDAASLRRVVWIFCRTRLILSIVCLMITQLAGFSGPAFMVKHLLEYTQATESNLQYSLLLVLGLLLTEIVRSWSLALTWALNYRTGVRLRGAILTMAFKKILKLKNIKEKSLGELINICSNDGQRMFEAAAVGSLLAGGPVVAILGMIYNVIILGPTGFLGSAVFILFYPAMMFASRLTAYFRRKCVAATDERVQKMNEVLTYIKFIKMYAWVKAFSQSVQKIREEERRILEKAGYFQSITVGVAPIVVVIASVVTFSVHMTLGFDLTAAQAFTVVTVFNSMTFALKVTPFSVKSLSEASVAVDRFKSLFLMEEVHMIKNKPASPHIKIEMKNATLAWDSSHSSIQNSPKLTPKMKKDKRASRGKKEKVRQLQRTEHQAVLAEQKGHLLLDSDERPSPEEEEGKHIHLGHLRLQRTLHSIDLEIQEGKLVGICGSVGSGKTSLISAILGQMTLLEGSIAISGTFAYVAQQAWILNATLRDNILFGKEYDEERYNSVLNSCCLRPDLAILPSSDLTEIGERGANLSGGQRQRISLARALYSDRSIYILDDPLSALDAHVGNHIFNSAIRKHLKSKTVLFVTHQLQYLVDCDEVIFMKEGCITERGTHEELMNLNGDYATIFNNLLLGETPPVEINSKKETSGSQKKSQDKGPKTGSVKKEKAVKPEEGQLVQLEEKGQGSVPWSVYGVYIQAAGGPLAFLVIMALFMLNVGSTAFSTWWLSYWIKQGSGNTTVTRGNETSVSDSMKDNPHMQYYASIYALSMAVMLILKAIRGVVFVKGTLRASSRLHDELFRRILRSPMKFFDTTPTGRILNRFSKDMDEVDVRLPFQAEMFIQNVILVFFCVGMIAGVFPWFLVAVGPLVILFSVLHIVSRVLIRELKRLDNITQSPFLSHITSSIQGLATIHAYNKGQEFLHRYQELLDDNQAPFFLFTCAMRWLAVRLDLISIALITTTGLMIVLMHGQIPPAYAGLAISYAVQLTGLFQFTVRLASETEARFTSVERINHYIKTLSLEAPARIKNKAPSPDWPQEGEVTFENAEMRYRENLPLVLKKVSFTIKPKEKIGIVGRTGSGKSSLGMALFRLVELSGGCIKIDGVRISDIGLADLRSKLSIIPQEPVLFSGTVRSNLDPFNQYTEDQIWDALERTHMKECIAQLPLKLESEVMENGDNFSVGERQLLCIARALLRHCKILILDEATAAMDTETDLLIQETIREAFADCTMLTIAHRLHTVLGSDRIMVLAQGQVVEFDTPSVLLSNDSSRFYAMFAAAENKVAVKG

## CSKFRRTRPLECQDALETAARAEGLSLDASMHSQLRILDEC (cysteines drawn unpaired) [M5PI]
  EM density of bound peptide: clear EM density for the bound D35C-E75C peptide in the central cavity
